In patent EP0324328B1, “Use of the N-n-butyl derivative of desoxynojirimycin in the manufacture of a medicament inhibiting HIV-Virus” (priority 1987, dated 1989):

What was measured:
HIV-1 = assay: Virus titer (TCID) of HIV-1 infected T-cell cultures grown with test compound; type: cell-based; details: control 10^6; for HIV-1 (TCID): Table 2, 0.10 mg/ml, 10^4 T-45 or MOLT-4 cells (identical results), 10^4 TCID inoculum, after day 10; for VIRUS TITER HIV-1: Table 3, Example 2, 0.1 mg/ml, T-45 and MOLT-4 cells, 10^4 TCID on 10^4 cells
Procedure: Cell free suspensions of the HIV were prepared from infected cultures. The concentration of infectious particles was estimated on end-point titration assay using serial ten-fold dilutions. The approximate number of infectious particles in each preparation was determined by the highest dilution which contains infectious HIV as determined by synctial formation, cytopathicity [Leonard et al., Proc. Natl. Acad. Sci. USA 85, 3570-3574 (1988); Barre-Sinoussi et al., Science 220, 868-870 (1983)] and HIV antigen [Karpas et al., Lancet 1, 695-697 (1985)] synthesis after 10 days of culture with 10^4 T-cells. This represents the concentration of infectious particles, herein defined as the tissue culture infectious dose (TCID).
The assay was run in 96 well plastic microtiter plates in which 0.2 ml of culture medium containing 10^4 T-cells are seeded into each well. RPMI-1640 supplemented with 10% fetal calf serum was used as the culture medium. In each assay, 6 wells are used. Three (1-3) are infected with 10^4 TCID/well of HIV-1 or HIV-2 and to the other three (4-6) culture medium alone is added. Medium is changed at the same intervals for each test compound. The detailed assay procedure is illustrated in Figures 1 and 2.
The efficacy of the test compounds used in this example was assessed as follows: 0.2 ml of culture medium containing 10^4 T-45 cells were transferred into each well of a 96-well flat-bottomed tissue-culture plastic plate and the cells were allowed to settle at 37°C (see Figure 1). After 4 hours the media were aspirated and replaced with media which contained the test compound. Following overnight incubation the media was aspirated and 10^4 TCID of virus (HIV-1 or HIV-2) was added to each well. Incubation was continued at 37°C in 5% CO2 for 1 hour. Thereafter, growth media containing the various compounds were added and incubation at 37°C was continued. On the fourth day the cell suspensions from each well were split and seeded into two new wells and 0.2 ml of fresh media with compounds was added. This was repeated on the seventh day. Cells were examined by microscopy during days 1 to 10 for the presence of syncytia, growth rate and the appearance of the cytopathic effect (CPE) (giant cells, pycnotic nuclei, loss of refractility). CPE (100%) was defined as no round, refractile, uniform cells remaining; only giant, ballooned pyknotic cells were present. The viability of HIV infected cultures was determined by a rough count/estimate of cells which underwent CPE in relation to round refractile uniform (normal) cells in a given culture. Cells in wells which were incubated with compounds which appeared to inhibit or reduce HIV replication and in which there was marked cell proliferation were either transferred to larger wells (of a 24-well plate) or divided in order to maintain an approximate constant cell density to promote continuous cell division.
That is, HIV-1 was first passaged in T-45 cells; likewise, HIV-1 was first passaged in MOLT-4 cells. The same passaging was done with HIV-2. The test compounds were used at a concentration of 0.1 mg/ml. 10^4 TCID of HIV-1 and separately of HIV-2 were used to infect 10^4 cells. Upon completion of the test, the virus titers were as follows: TABLE 3

glucosidase I = molecular target: T1, glucosidase I (Bos taurus, UniProt A0A3Q1M9D9); details: reported by Schweden et al., Arch. Biochem. Biophys. 248(1), 335-340 (1986); cited from earlier work
T1 sequence (A0A3Q1M9D9 1-839): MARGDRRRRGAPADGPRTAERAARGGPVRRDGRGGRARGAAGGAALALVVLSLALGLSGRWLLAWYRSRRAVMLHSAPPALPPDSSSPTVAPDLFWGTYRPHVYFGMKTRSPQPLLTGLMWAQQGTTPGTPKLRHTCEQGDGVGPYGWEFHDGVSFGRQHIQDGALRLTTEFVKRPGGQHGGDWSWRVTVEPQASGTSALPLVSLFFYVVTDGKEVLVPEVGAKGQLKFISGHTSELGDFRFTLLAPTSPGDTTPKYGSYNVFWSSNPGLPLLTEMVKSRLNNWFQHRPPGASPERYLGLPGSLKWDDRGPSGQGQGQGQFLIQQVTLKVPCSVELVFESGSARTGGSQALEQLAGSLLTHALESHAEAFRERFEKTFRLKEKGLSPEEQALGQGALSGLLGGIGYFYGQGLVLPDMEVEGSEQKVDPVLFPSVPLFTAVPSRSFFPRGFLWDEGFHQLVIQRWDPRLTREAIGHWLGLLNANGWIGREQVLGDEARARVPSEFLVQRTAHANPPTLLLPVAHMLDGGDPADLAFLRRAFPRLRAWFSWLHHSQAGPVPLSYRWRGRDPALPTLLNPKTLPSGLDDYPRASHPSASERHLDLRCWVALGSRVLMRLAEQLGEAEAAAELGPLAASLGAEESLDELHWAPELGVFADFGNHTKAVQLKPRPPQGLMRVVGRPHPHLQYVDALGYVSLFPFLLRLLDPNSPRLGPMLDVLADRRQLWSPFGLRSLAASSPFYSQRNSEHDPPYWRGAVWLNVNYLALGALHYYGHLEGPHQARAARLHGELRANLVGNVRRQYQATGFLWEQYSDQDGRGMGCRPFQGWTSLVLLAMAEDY

Row | SMILES | HIV-1 (TCID) (HIV-1) | VIRUS TITER HIV-1 (HIV-1) | glucosidase I inhibitory activity (glucosidase I)
1 | CN1C[C@H](O)[C@@H](O)[C@H](O)[C@H]1CO [MeDNJ, N-methyl-deoxynojirimycin] | 10^2 TCID | 10^2 | virtually identical
2 | CCCCN1C[C@H](O)[C@@H](O)[C@H](O)[C@H]1CO [BuDNJ, N-n-butyl-deoxynojirimycin] | <10 TCID | 10 | virtually identical
